One block for each compound: values may come before it.
What was measured:
[1] = test system: 6-FAM-CUG23 (RNA, repeat) CUGCUGCUGCUGCUGCUGCUGCUGCUGCUGCUGCUGCUGCUGCUGCUGCUGCUGCUGCUGCUGCUGCUG; assay: fluorescence polarization; conditions: 250 mM NaCl, 50 μM ZnCl2, 50 mM Tris-HCl pH 7.0, 10% glycerol, 1 mM DTT, on ice, RNA 6 nM
[2] = test system: (CUG)12 RNA (CUGexp) (RNA, repeat) CUGCUGCUGCUGCUGCUGCUGCUGCUGCUGCUGCUG; assay: direct fluorescence titration; conditions: log K; fitted with HypSpec; buffer of the direct titration not stated separately

binding ([1]; pentamidine-like polarization at 37.5 μM): yes
SMILES: CC(=O)Nc1cccc(NC(=O)c2csc(NC(=O)c3ccc(Cl)cc3)n2)c1

binding ([1]; saturated at 250 μM): yes
SMILES: CC1Cc2c(N)nc(NCc3ccc(CNc4nc(N)c5c(n4)NC(=O)C(C)C5)cc3)nc2NC1=O (stereo not shown)

binding constant [2]: 6.5(1) logarithmic units
SMILES: CN1C(=Cc2cc[n+](C)c3ccccc23)Sc2ccccc21

binding ([1]; 100 μM pentamidine positive control): yes
SMILES: N=C(N)c1ccc(OCCCCCOc2ccc(C(=N)N)cc2)cc1
